According to article PMC12261219, “Comparative Evaluation of Thiol- and Amine-Conjugating Moieties for Endogenous Albumin Binding after Intravenous Administration” (ACS Pharmacology & Translational Science, 2025):
Values joined by “and” are separate entries in the source; they are usually repeats but may differ in a detail not shown here. Identical values can stand only once.

Legend:
[1] = target: T1, apotransferrin (Homo sapiens, UniProt P02787); assay: SEC-ICP-MS with single serum protein solution: apotransferrin; format: binding; conditions: 200 μM apotransferrin, 100 μM compound, 100 mM PB pH 7.4, 37 °C, 2 h
T1 construct: purchased Sigma-Aldrich T1147
T1 sequence (P02787 20-698): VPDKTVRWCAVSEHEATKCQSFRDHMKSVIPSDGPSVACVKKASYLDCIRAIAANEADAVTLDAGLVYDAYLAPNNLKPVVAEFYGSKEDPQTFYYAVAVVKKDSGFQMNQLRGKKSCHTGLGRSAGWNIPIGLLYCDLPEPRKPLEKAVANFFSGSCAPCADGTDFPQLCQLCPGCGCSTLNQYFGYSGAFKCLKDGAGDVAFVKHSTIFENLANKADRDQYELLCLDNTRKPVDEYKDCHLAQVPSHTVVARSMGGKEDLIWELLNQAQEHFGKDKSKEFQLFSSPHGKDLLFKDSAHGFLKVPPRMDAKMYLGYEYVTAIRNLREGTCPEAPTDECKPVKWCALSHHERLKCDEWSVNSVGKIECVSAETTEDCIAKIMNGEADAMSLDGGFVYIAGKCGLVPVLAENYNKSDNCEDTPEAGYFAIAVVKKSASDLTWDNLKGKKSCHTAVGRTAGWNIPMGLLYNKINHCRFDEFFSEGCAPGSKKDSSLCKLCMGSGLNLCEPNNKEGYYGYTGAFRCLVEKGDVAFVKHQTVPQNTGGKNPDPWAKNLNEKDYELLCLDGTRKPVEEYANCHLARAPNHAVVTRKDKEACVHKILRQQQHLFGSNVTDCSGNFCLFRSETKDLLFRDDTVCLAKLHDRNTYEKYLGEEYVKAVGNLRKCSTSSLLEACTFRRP
Description: (§1) All investigated proteins were purchased from commercial suppliers: Albumin (Sigma-Aldrich, A8763), IgG (Athens Research, 16–16–090707), α1-antitrypsin (Sigma-Aldrich, A6150) and apotransferrin (Sigma-Aldrich, T1147). […] The compound stocks were diluted into the protein solution to reach a final concentration of 100 μM (27 μL protein and 3 μL compound). The samples were incubated at 37 °C for 2 h and analyzed as described for the SEC-ICP-MS studies (Tables S6 and S7).

[2] = tested on: IgG; assay: SEC-ICP-MS with single serum protein solution: IgG; format: binding, human; conditions: 200 μM IgG, 100 μM compound, 100 mM PB pH 7.4, 37 °C, 2 h
Description: as §1

[3] = Reduction with ascorbic acid, release of oxaliplatin (HPLC); format: physicochemical; conditions: 0.5 mM, 150 mM PB, pH 7.4, 20 °C, 30 eq. ascorbic acid
Description: The samples were incubated at 20 °C and measured over 25 h. […] RP-HPLC runs were performed using a Waters Acquity UPLC HSS T3 column (100 Å, 1.8 μm, 3.0 mm × 50 mm) on a Dionex Thermo Scientific UltiMate 3000 HPLC system, equipped with a HPG-3400RS binary pump and a DAD-3000RS UV–vis detector. Chromatograms were evaluated at a wavelength of 230 nm. Milli-Q water (mobile phase A) and acetonitrile (mobile phase B), both containing 0.1% TFA, were used as eluents. The flow rate was consistent at 0.6 mL/min for all measurements using the following gradient: 0–0.5 min A 99:1 B, 0.5–5.5 min linear gradient to A 1:99 B, 5.5–6.5 min A 1:99 B, 6.5–9.2 min A 99:1 B.

[4] = target: T2, albumin (mouse serum) (Mus musculus, UniProt P07724); assay: SEC-ICP-MS albumin binding in mouse serum; format: in vitro ADME; conditions: 100 µM, 37 °C
T2 construct: The serum was separated by centrifugation (two times 10 min at 900 g) after 10–20 min clotting at room temperature; from tissue; host or cells: serum of Balb/c mice
T2 sequence (P07724 25-608): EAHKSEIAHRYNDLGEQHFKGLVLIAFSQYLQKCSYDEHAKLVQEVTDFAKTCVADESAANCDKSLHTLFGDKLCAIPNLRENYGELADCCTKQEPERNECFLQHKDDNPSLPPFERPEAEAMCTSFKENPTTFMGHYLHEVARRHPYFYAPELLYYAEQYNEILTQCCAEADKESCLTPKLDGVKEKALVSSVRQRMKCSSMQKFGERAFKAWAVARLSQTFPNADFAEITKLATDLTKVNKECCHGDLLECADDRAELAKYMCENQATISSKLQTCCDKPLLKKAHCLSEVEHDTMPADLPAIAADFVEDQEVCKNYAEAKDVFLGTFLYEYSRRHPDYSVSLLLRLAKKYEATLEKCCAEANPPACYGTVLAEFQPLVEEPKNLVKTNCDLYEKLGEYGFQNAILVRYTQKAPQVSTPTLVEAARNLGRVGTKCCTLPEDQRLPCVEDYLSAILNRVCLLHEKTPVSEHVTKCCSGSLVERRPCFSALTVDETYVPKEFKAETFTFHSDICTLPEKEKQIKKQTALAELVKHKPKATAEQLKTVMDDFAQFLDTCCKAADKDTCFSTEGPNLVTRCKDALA
Description: (§2) Blood of Bab/c mice was collected under anesthesia via heart puncture. […] Human serum was purchased from Sigma-Aldrich. In order to guarantee a stable pH, all sera were buffered with 150 mM phosphate to pH 7.4 by dissolving the necessary amounts of Na2HPO4 and NaH2PO4 directly in the serum. […] The samples were then incubated in the autosampler at 37 °C and analyzed every hour for 4 or 5 h and after 24 h. Between each sample a pure water blank was measured. For measurements with 10 min intervals the same procedure was followed, but the blank measurements were omitted. For SEC-ICP-MS measurements an Agilent 1260 Infinity system coupled to an Agilent 7800 ICP-HRMS equipped with a dynamic reaction cell was used. Oxygen (purity 5.5, Messer Austria GmbH, Gumpoldskirchen, Austria) was used as reaction gas.

[5] = target: T3, α1-antitrypsin (Homo sapiens, UniProt P01009); assay: SEC-ICP-MS with single serum protein solution: α1-antitrypsin; format: binding; conditions: 200 μM α1-antitrypsin, 100 μM compound, 100 mM PB pH 7.4, 37 °C, 2 h
T3 construct: purchased Sigma-Aldrich A6150
T3 sequence (P01009 25-418): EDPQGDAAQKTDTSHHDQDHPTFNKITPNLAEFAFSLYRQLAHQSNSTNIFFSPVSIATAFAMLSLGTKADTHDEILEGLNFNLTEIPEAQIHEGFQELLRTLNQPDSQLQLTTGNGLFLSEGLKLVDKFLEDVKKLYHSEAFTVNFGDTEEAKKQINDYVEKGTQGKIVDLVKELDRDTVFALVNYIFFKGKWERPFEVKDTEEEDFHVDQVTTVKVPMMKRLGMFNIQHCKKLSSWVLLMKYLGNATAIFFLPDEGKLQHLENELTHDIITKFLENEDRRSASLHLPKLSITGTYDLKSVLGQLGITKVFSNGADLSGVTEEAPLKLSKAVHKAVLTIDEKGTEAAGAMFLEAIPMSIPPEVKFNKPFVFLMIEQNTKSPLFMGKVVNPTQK
Description: as §1

[6] = target: T4, albumin (Homo sapiens, UniProt P02768); assay: SEC-ICP-MS with single serum protein solution: albumin; format: binding; conditions: 200 μM albumin, 100 μM compound, 100 mM PB pH 7.4, 37 °C, 2 h
T4 construct: purchased Sigma-Aldrich A8763
T4 sequence (P02768 25-609): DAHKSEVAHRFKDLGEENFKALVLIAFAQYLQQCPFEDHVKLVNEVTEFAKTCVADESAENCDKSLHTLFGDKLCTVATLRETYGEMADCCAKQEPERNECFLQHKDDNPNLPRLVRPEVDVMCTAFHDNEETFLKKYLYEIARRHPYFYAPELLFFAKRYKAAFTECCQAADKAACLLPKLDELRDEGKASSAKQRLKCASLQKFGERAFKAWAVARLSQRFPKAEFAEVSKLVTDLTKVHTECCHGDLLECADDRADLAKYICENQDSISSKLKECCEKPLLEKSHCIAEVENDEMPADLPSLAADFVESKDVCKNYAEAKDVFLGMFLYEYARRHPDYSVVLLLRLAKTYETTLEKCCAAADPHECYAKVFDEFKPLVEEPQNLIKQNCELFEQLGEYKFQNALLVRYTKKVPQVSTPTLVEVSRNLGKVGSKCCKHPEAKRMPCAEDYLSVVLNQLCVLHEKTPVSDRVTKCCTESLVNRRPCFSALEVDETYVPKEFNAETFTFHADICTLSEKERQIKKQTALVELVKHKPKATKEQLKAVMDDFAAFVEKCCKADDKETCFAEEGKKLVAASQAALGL
Description: as §1

[7] = Serum pharmacokinetics (platinum, ICP-MS) in CT26-bearing Balb/c mice; conditions: for Cmax / Percentage of AUCPt_0-∞ extrapolated from tlast to infinity / Half-life / CL / Vz: serum platinum; for Cmax: measured at tmax=0.08 h; for Cmax / CL: single i.v. dose 4.42 mg/kg Pt; for Percentage of AUCPt_0-∞ extrapolated from tlast to infinity: tlast=24 h; for Half-life: terminal half-life; for CL: total body clearance; for Vz: volume of distribution based on the terminal phase
Description: CT26 cells (5 × 10^5 in 50 μL serum-free medium) were injected subcutaneously (s.c.) into the right flank of male Balb/c mice. […] The blood, tumor and organ collection followed the study design in Figure A. Briefly, to assess serum platinum levels, blood was collected after 5 min, 30 min, 5 h and 24 h (2 mice per time point) via the facial vein. The serum was separated by centrifugation (two times 10 min at 900 g) after 10 min clotting at room temperature. […] All collected samples were stored at −20 °C and further processed for platinum measurements via ICP-MS as follows: HNO3 (67–69%, suprapur for trace metal analysis, NORMATOM; Distributor: VWR international, Austria) and conc. H2O2 suprapur (Merck, 30%) were used without further purification. Digestion of tissue (approximately 15–30 mg gravimetrically weighted) was performed with 2 mL of approximately 20% HNO3 and 100 μL H2O2 using an open vessel graphite digestion system (coated graphite heating plate, coated sample holder-top for 25 mL vials, PFA vials and PFA lids; Labter, ODLAB; Distributor: AHF Analysentechnik AG; Germany). Digested samples were diluted in Milli-Q water (18.2 MΩ cm, Milli-Q Advantage, Darmstadt, Germany). For the ICP-MS analysis, platinum and rhenium standards were derived from CPI International (Amsterdam, The Netherlands). The total platinum content was determined with a quadrupole-based Agilent 7800 ICP-MS instrument (Agilent Technologies, Tokyo, Japan) equipped with the Agilent SPS 4 autosampler (Agilent Technologies, Tokyo, Japan) and a MicroMist nebulizer at a sample uptake rate of approximately 0.2 mL/min. An RF power of 1550 W was used as well as nickel cones. Argon was used as plasma gas (15 L/min) and as carrier gas (∼1.1 L/min). The dwell time was set to 0.1 s and the measurements were performed in 6 replicates with 100 sweeps. Rhenium served as internal standard for platinum. The Agilent MassHunter software package (Workstation Software, version C.01.04) was used for data processing.
As platinum was measured in serum, equimolar administered doses were adjusted to correspond to platinum (0.0227 mmol, 4.42 mg platinum). The area under the “concentration”–time curve (AUC) was determined from time 0 to infinity (AUCPt_0‑∞) and from time 0 to 24 h (AUCPt_0–24, based on the last observed sample at 24 h; linear-log trapezoidal calculation method). The terminal slope (λ z ) was determined based on the last two (out of four) measurements (times 5 h and 24 h).

[8] = target: T5, albumin (human serum) (Homo sapiens, UniProt P02768); assay: SEC-ICP-MS albumin binding in human serum; format: in vitro ADME; conditions: for Pt195 in HMWF (albumin-bound) / Pt195 in LMWF: 100 µM, 37 °C; for Bound to albumin: from 1 to 24 h
T5 construct: Human serum was purchased from Sigma-Aldrich; tissue Sigma-Aldrich; host or cells: human serum
T5 sequence (P02768 25-609): as above
Description: as §2

[9] = pH 7.4, 10 min intervals, 0 min
[10] = pH 7.4, 10 min intervals, 10 min
[11] = pH 7.4, 10 min intervals, 20 min
[12] = pH 7.4, 10 min intervals, 30 min
[13] = pH 7.4, 10 min intervals, 40 min
[14] = pH 7.4, 10 min intervals, 50 min
[15] = pH 7.4, 10 min intervals, 60 min

CC(=O)[O][Pt-2]12([O]C(=O)NCCOCCOCCOCCOCCN3C(=O)C=CC3=O)([NH2+][C@@H]3CCCC[C@H]3[NH2+]1)[O]C(=O)C(=O)[O]2 [Mal-Ox-OAc, (OC-6–34)-Acetato[(1R,2R)-1,2-cyclohexane-1,2-diamino][ (14-(2,5-dioxo-2,5-dihydro-1H-pyrrol-1-yl)-3,6,9,12-tetraoxatetradecyl)-carbamato]-oxalato platinum(IV)]
Platinum in the HMWF (protein-bound) [1]: less than 10% | Platinum in the HMWF (protein-bound) [2]: less than 20% | Oxaliplatin detected (released) after 25 h [3]: 18% | Pt195 in HMWF (albumin-bound) [4, 9]: 36% | Pt195 in LMWF [4, 9]: 64% | Pt195 in HMWF (albumin-bound) [4, 10]: 58% and ~60% | Pt195 in LMWF [4, 10]: 42% | Pt195 in HMWF (albumin-bound) [4, 11]: 68% | Pt195 in LMWF [4, 11]: 32% | Pt195 in HMWF (albumin-bound) [4, 12]: 74% | Pt195 in LMWF [4, 12]: 26% | Pt195 in HMWF (albumin-bound) [4, 13]: 78% | Pt195 in LMWF [4, 13]: 22% | Pt195 in HMWF (albumin-bound) [4, 14]: 79% | Pt195 in LMWF [4, 14]: 21% | Pt195 in HMWF (albumin-bound) [4, 15]: 80% | Pt195 in LMWF [4, 15]: 20% | Pt195 in LMWF ([4]; pH 7.4, 1 h intervals, 0 h): 66% | Pt195 in HMWF (albumin-bound) ([4]; pH 7.4, 1 h intervals, 1 h): 75% | Pt195 in LMWF ([4]; pH 7.4, 1 h intervals, 1 h): 25% | Pt195 in HMWF (albumin-bound) ([4]; pH 7.4, 1 h intervals, 2 h): 74% | Pt195 in LMWF ([4]; pH 7.4, 1 h intervals, 2 h): 26% | Pt195 in HMWF (albumin-bound) ([4]; pH 7.4, 1 h intervals, 3 h): 74% | Pt195 in LMWF ([4]; pH 7.4, 1 h intervals, 3 h): 26% | Pt195 in HMWF (albumin-bound) ([4]; pH 7.4, 1 h intervals, 4 h): 74% | Pt195 in LMWF ([4]; pH 7.4, 1 h intervals, 4 h): 26% | Pt195 in HMWF (albumin-bound) ([4]; pH 7.4, 1 h intervals, 24 h): 75% | Pt195 in LMWF ([4]; pH 7.4, 1 h intervals, 24 h): 25% | Platinum in the HMWF (protein-bound) [5]: ~30% | Platinum in the HMWF (protein-bound) [6]: 75% | Cmax [7]: 35.6 mg/kg | Percentage of AUCPt_0-∞ extrapolated from tlast to infinity [7]: 27.7% | Half-life ([7]; i.v.): 12.2 h | CL [7]: 0.00892 kg/h/kg | Vz ([7]; i.v.): 0.157 kg/kg | Pt195 in HMWF (albumin-bound) ([8]; pH 7.4, 0 h): 29% | Pt195 in LMWF ([8]; pH 7.4, 0 h): 71% | Pt195 in HMWF (albumin-bound) ([8]; pH 7.4, 1 h): 94% and ~90% | Pt195 in LMWF ([8]; pH 7.4, 1 h): 6% | Pt195 in HMWF (albumin-bound) ([8]; pH 7.4, 2 h): 94% | Pt195 in LMWF ([8]; pH 7.4, 2 h): 6% | Pt195 in HMWF (albumin-bound) ([8]; pH 7.4, 3 h): 94% | Pt195 in LMWF ([8]; pH 7.4, 3 h): 6% | Pt195 in HMWF (albumin-bound) ([8]; pH 7.4, 4 h): 94% | Pt195 in LMWF ([8]; pH 7.4, 4 h): 6% | Pt195 in HMWF (albumin-bound) ([8]; pH 7.4, 5 h): 94% | Pt195 in LMWF ([8]; pH 7.4, 5 h): 6% | Pt195 in HMWF (albumin-bound) ([8]; pH 7.4, 24 h): 93% | Pt195 in LMWF ([8]; pH 7.4, 24 h): 7% | Bound to albumin [8]: ~90%

CC(=O)[O][Pt-2]12([O]C(=O)NCCOCCOCCOCCOc3ccc(-c4nnc(S(C)(=O)=O)o4)cc3)([NH2+][C@@H]3CCCC[C@H]3[NH2+]1)[O]C(=O)C(=O)[O]2 [PODS-Ox-OAc, (OC-6–34)-Acetato[(1R,2R)-1,2-cyclohexane-1,2-diamino][(2-(2-(2-(2-(4-(5-(methylsulfonyl)-1,3,4-oxadiazol-2-yl)-phenoxy)-ethoxy)-ethoxy)-ethoxy)-ethyl)-carbamato]-oxalato platinum(IV)]
Platinum in the HMWF (protein-bound) [1]: less than 10% | Platinum in the HMWF (protein-bound) [2]: less than 20% | Oxaliplatin detected (released) after 25 h [3]: 9% | Pt195 in HMWF (albumin-bound) [4, 9]: 34% | Pt195 in LMWF [4, 9]: 66% | Pt195 in HMWF (albumin-bound) [4, 10]: 59% and ~60% | Pt195 in LMWF [4, 10]: 41% | Pt195 in HMWF (albumin-bound) [4, 11]: 71% | Pt195 in LMWF [4, 11]: 29% | Pt195 in HMWF (albumin-bound) [4, 12]: 78% | Pt195 in LMWF [4, 12]: 22% | Pt195 in HMWF (albumin-bound) [4, 13]: 83% | Pt195 in LMWF [4, 13]: 17% | Pt195 in HMWF (albumin-bound) [4, 14]: 85% | Pt195 in LMWF [4, 14]: 15% | Pt195 in HMWF (albumin-bound) [4, 15]: 87% | Pt195 in LMWF [4, 15]: 13% | Pt195 in HMWF (albumin-bound) ([4]; pH 7.4, 1 h intervals, 0 h): 30% | Pt195 in LMWF ([4]; pH 7.4, 1 h intervals, 0 h): 70% | Pt195 in HMWF (albumin-bound) ([4]; pH 7.4, 1 h intervals, 1 h): 82% and ~80% | Pt195 in LMWF ([4]; pH 7.4, 1 h intervals, 1 h): 18% | Pt195 in HMWF (albumin-bound) ([4]; pH 7.4, 1 h intervals, 2 h): 80% | Pt195 in LMWF ([4]; pH 7.4, 1 h intervals, 2 h): 20% | Pt195 in HMWF (albumin-bound) ([4]; pH 7.4, 1 h intervals, 3 h): 80% | Pt195 in LMWF ([4]; pH 7.4, 1 h intervals, 3 h): 20% | Pt195 in HMWF (albumin-bound) ([4]; pH 7.4, 1 h intervals, 4 h): 79% | Pt195 in LMWF ([4]; pH 7.4, 1 h intervals, 4 h): 21% | Pt195 in HMWF (albumin-bound) ([4]; pH 7.4, 1 h intervals, 24 h): 80% | Pt195 in LMWF ([4]; pH 7.4, 1 h intervals, 24 h): 20% | Platinum in the HMWF (protein-bound) [5]: ~30% | Platinum in the HMWF (protein-bound) [6]: 69% | Serum platinum level higher than after Mal-Ox-OAc treatment ([7]; at 5 and 30 min, i.v.): about 50% | Cmax [7]: 52.5 mg/kg | Percentage of AUCPt_0-∞ extrapolated from tlast to infinity [7]: 25.5% | Half-life ([7]; i.v.): 13.6 h | CL [7]: 0.00693 kg/h/kg | Vz ([7]; i.v.): 0.136 kg/kg | Pt195 in HMWF (albumin-bound) ([8]; pH 7.4, 0 h): 2% and < 5% | Pt195 in LMWF ([8]; pH 7.4, 0 h): 98% | Pt195 in HMWF (albumin-bound) ([8]; pH 7.4, 1 h): 87% and ~90% | Pt195 in LMWF ([8]; pH 7.4, 1 h): 13% | Pt195 in HMWF (albumin-bound) ([8]; pH 7.4, 2 h): 91% | Pt195 in LMWF ([8]; pH 7.4, 2 h): 9% | Pt195 in HMWF (albumin-bound) ([8]; pH 7.4, 3 h): 92% | Pt195 in LMWF ([8]; pH 7.4, 3 h): 8% | Pt195 in HMWF (albumin-bound) ([8]; pH 7.4, 4 h): 92% | Pt195 in LMWF ([8]; pH 7.4, 4 h): 8% | Pt195 in HMWF (albumin-bound) ([8]; pH 7.4, 5 h): 92% | Pt195 in LMWF ([8]; pH 7.4, 5 h): 8% | Pt195 in HMWF (albumin-bound) ([8]; pH 7.4, 24 h): 92% | Pt195 in LMWF ([8]; pH 7.4, 24 h): 8% | Bound to albumin [8]: ~90%
